Series [1] in a line: In vitro skin flux, Franz diffusion cell, hairless mouse skin. Particulars: for steady state flux in solid gel-forming formulation compared with flux-enabling non-volatile solvent alone: Table 16 vs solvent tables; for Avg. Flux / Average Flux: mean and st. dev of three; for Skin Flux: excess drug, linear region 4-8 hours, mean ± SD of three.
Series [2] can be described thus: Estimated therapeutically sufficient flux (steady state flux of marketed products, in vitro).
Series [3] in a line: In vitro skin flux, Franz diffusion cell, human epidermal membrane / human cadaver skin. Particulars: for Skin Flux: 0.1% (w/w) clobetasol propionate, human cadaver skin (HEM), linear region 6-28 hours, mean ± SD of three. The class given is in vitro ADME.
Experiment in series [4]: as above
Format: in vitro ADME. Particulars: for duration over which steady-state delivery is shown: cumulative amount delivered across human cadaver skin from a solidified gel formulation (FIG. 1, FIG. 2).

For series [5] the following is noted: pH 7.4.
Setting [6] is: non-volatile solvent system: Ethyl oleate, hairless mouse skin.
The mark [7] stands for this setting: non-volatile solvent system: Isostearic acid, 200 mcL on hairless mouse skin.
[8] abbreviates: non-volatile solvent system: Oleic acid, hairless mouse skin.
[9] abbreviates: non-volatile solvent system: Polyethylene glycol 400, 200 mcL on hairless mouse skin.
[10] abbreviates: non-volatile solvent: Polyethylene glycol 400, hairless mouse skin.
Where [11] appears, read: steady state flux of marketed product through hairless mouse or human epidermal membrane, method of Example 1, estimate.
The mark [12] stands for this setting: non-volatile solvent system: Glycerol, hairless mouse skin.
Setting [13] is: non-volatile solvent system: Propylene glycol, hairless mouse skin.
Setting [14] is: non-volatile solvent system: Span 20 (sorbitan laurate), hairless mouse skin.
[15] abbreviates: non-volatile solvent system: Isopropyl myristate, hairless mouse skin.
The mark [16] stands for this setting: solvents isopropyl myristate, ethyl oleate, propylene glycol, and Span 20, hairless mouse skin.

SMILES strings stand for the structures. Where two headings read alike, the source gives them in different places.

Take `Nc1nc2c(ncn2COCCO)c(=O)[nH]1` [Acyclovir, acyclovir]: the “steady state flux in solid gel-forming formulation compared with flux-enabling non-volatile solvent alone” value in series [1] (hairless mouse skin) is on record as “higher”. In addition, the “Avg. Flux” value in series [1] (high flux-enabling non-volatile solvent: ISA + 30% trolamine, hairless mouse skin) amounted to 7 ± 2 μg/cm2/h. Also, the “Skin Flux” value in series [1] (non-volatile solvent system: Ethyl oleate + 10% trolamine, hairless mouse skin) was found to be 0.2 ± 0.2 μg/cm^2/h; in series [1] (setting [6]) it was 0.2 ± 0.2 μg/cm^2/h; in series [1] (non-volatile solvent system: Isostearic acid + 10% trolamine, hairless mouse skin) it was 2.7 ± 0.6 μg/cm^2/h; in series [1] (non-volatile solvent system: Isostearic acid + 30% trolamine, hairless mouse skin), 7 ± 2 μg/cm^2/h; in series [1] (setting [7]), 0.1 ± 0.09 μg/cm^2/h; in series [1] (non-volatile solvent system: Oleic acid + 10% trolamine, hairless mouse skin) it was 3.7 ± 0.5 μg/cm^2/h. The “Skin Flux” value came to 14 ± 5 μg/cm^2/h in series [1] (non-volatile solvent system: Oleic acid + 30% trolamine, hairless mouse skin); 0.4 ± 0.3 μg/cm^2/h in series [1] (setting [8]); 0 μg/cm^2/h in series [1] (setting [9]); 0.07 ± 0.03 μg/cm^2/h in series [1] (non-volatile solvent system: Span 80 (sorbitan monooleate), hairless mouse skin). Further, the “Average Flux” value in series [1] (non-volatile solvent: Isostearic acid + 10% trolamine, hairless mouse skin) was 2.7 ± 0.6 μg/cm2/hr; in series [1] (setting [10]), 0 μg/cm2/hr. Also, the “Estimated Therapeutically sufficient flux” value in series [2] (setting [11]) is reported as 3 μg/cm^2/h; in series [2] (steady state flux of marketed product through hairless mouse or human epidermal membrane, method of Example 1, estimate, listed as acyclovir) it was “about 3 μg/cm^2/h”.

Take `CCC(=O)O[C@]1(C(=O)CCl)[C@@H](C)C[C@H]2[C@@H]3CCC4=CC(=O)C=C[C@]4(C)[C@@]3(F)[C@@H](O)C[C@@]21C` [Clobetasol propionate, clobetasol propionate]: the Average Flux entry in series [3] (all the neat non-volatile solutions studied, over a 30 hour time period, human cadaver skin) was “less than 50 ng/cm^2/hr”; in series [3] (non-volatile solvent: Isostearic acid (ISA), human epidermal membrane, mean and st. dev of three), 0.019 ± 0.003 μg/cm2/hr; in series [3] (non-volatile solvent: Light mineral oil, human epidermal membrane, mean and st. dev of three), 0.031 ± 0.003 μg/cm2/hr; in series [3] (non-volatile solvent: Propylene glycol, human epidermal membrane, mean and st. dev of three) it was 0.0038 ± 0.0004 μg/cm2/hr. For the same molecule, the “average flux relative to light mineral oil” value in series [3] (propylene glycol and isostearic acid at a weight ratio of 9:1 vs light mineral oil) is 20 times. For the same molecule, the “Skin Flux” value in series [3] (solvent: Ethyl oleate) worked out at 19.4 ± 1.6 ng/cm^2/h; in series [3] (solvent: Glycerol), 7.0 ± 4.1 ng/cm^2/h; in series [3] (solvent: Isostearic acid (ISA)), 19.4 ± 3.2 ng/cm^2/h; in series [3] (solvent: Light mineral oil), 31.2 ± 3.4 ng/cm^2/h; in series [3] (solvent: Olive oil), 13.6 ± 3.3 ng/cm^2/h; in series [3] (solvent: Propylene glycol/ISA (9:1)) it was 764.7 ± 193.9 ng/cm^2/h. In series [3] (solvent: Propylene glycol, 200 mcl), the “Skin Flux” value was 3.8 ± 0.4 ng/cm^2/h. The “Avg. Flux” value in series [3] (solvent: PG + ISA (Ratio of PG:ISA ranging from 200:1 to 1:1), value is for 9:1 mixture, human epidermal membrane) is given as 0.8 ± 0.2 μg/cm2/h.

`C[C@H]1C[C@H]2[C@@H]3CCC4=CC(=O)C=C[C@]4(C)[C@@]3(F)[C@@H](O)C[C@]2(C)[C@@]1(O)C(=O)CCl` [Clobetasol]: the “Estimated Therapeutically sufficient flux” value in series [2] (setting [11]) is given as 0.05 μg/cm^2/h.

`O=C(O)Cc1ccccc1Nc1c(Cl)cccc1Cl` [Diclofenac]: in series [4], the “duration over which steady-state delivery is shown” value stood at 28 h. The “steady state flux in solid gel-forming formulation compared with flux-enabling non-volatile solvent alone” value in series [4] (formulation (Example 16) tested on human epidermal membrane, solvent on hairless mouse skin) was “lower”. Besides, in series [2] (setting [11]), the “Estimated Therapeutically sufficient flux” value was 1 μg/cm^2/h.

Consider `CC(C)Cn1cnc2c(N)nc3ccccc3c21` [Imiquimod, imiquimod], for which the “steady state flux in solid gel-forming formulation compared with flux-enabling non-volatile solvent alone” value in series [1] (hairless mouse skin) is listed as “unchanged”. Also, the “Skin Flux” value in series [1] (setting [12]) is 0 μg/cm^2/h; in series [1] (setting [7]), 0.30 ± 0.06 μg/cm^2/h; in series [1] (setting [13]), 0.05 ± 0.02 μg/cm^2/h; in series [1] (setting [14]), 0.30 ± 0.05 μg/cm^2/h; in series [1] (non-volatile solvent system: Tween 60 (polyoxyethylene sorbitan monostearate), hairless mouse skin), 0.02 ± 0.01 μg/cm^2/h.

`CC(C(=O)O)c1cccc(C(=O)c2ccccc2)c1` (stereo not shown) [Ketoprofen, ketoprofen]: the “steady state flux in solid gel-forming formulation compared with flux-enabling non-volatile solvent alone” value in series [1] (hairless mouse skin) is listed as “lower”. Also, in series [1] (high flux-enabling non-volatile solvent: Propylene glycol, hairless mouse skin), the “Avg. Flux” value was 90 ± 50 μg/cm2/h. Besides, the “Skin Flux” value came out at 2 ± 1 μg/cm^2/h in series [1] (setting [12]); 180 ± 20 μg/cm^2/h in series [1] (setting [8]); 5 ± 2 μg/cm^2/h in series [1] (setting [9]); 90 ± 50 μg/cm^2/h in series [1] (setting [13]); 15 ± 3 μg/cm^2/h in series [1] (setting [14]). Further, the “Average Flux” value is 5 ± 2 μg/cm2/hr in series [1] (setting [10]) and 15 ± 3 μg/cm2/hr in series [1] (non-volatile solvent: Span 20, hairless mouse skin). The “Estimated Therapeutically sufficient flux” value in series [2] (setting [11]) is on record as 16 μg/cm^2/h; in series [2] (steady state flux of marketed product through hairless mouse or human epidermal membrane, method of Example 1, estimate, listed as ketoprofen) it was “about 16 μg/cm^2/h”.

Turning to `CCCN1CCCC[C@H]1C(=O)Nc1c(C)cccc1C` [Ropivacaine, ropivacaine], the “duration over which steady-state delivery is shown” value in series [4] was determined as 30 h. In addition, the “steady state flux in solid gel-forming formulation compared with flux-enabling non-volatile solvent alone” value in series [1] (hairless mouse skin) was “higher”. In addition, the “Avg. Flux” value in series [1] (high flux-enabling non-volatile solvent: ISA, hairless mouse skin) is 11 ± 2 μg/cm2/h; in series [1] (high flux-enabling non-volatile solvent: Span 20, hairless mouse skin), 26 ± 8 μg/cm2/h. In addition, the “Skin Flux” value in series [1] (setting [12]) is reported as 1.2 ± 0.7 μg/cm^2/h; in series [1] (setting [7]) it was 11 ± 2 μg/cm^2/h; in series [1] (non-volatile solvent system: Mineral oil, hairless mouse skin), 8.9 ± 0.6 μg/cm^2/h; in series [1] (setting [14]), 26 ± 8 μg/cm^2/h; in series [1] (non-volatile solvent system: Tween 20 (polyoxyethylene sorbitan monolaurate), hairless mouse skin), 2.4 ± 0.1 μg/cm^2/h. Also, the “Average Flux” value in series [1] (non-volatile solvent: Glycerol, hairless mouse skin) was 1.2 ± 0.7 μg/cm2/hr; in series [1] (non-volatile solvent: Mineral oil, hairless mouse skin), 8.9 ± 0.6 μg/cm2/hr. Further, the “Estimated Therapeutically sufficient flux” value is recorded as 5 μg/cm^2/h in series [2] (Estimated flux based on known potency relative to lidocaine) and “about 5 μg/cm^2/h” in series [2] (Estimated flux based on known potency relative to lidocaine, listed as ropivacaine base).

With `C[C@]12CC[C@H]3[C@@H](CCC4=CC(=O)CC[C@@]43C)[C@@H]1CC[C@@H]2O` [Testosterone, testosterone], the “Estimated Therapeutically sufficient flux” value in series [5] is 0.8 μg/cm^2/h.

Regarding `O=C(O)Cc1ccccc1Nc1c(Cl)cccc1Cl` [diclofenac acid], the “Skin Flux” value stood at 7 ± 3 μg/cm^2/h in series [1] (setting [6]); 0 μg/cm^2/h in series [1] (setting [12]); 8 ± 3 μg/cm^2/h in series [1] (setting [15]); 5 ± 2 μg/cm^2/h in series [1] (setting [13]); 3 ± 1 μg/cm^2/h in series [1] (setting [14]). Also, the “steady state flux relative to currently available marketed products” value in series [1] (setting [16]) is “no more than 10 times”.

Take `O=C(O)Cc1ccccc1Nc1c(Cl)cccc1Cl` [diclofenac sodium]: the “Skin Flux” value in series [1] (setting [6]) is listed as 14 ± 4 μg/cm^2/h; in series [1] (setting [12]), 1.7 ± 0.3 μg/cm^2/h; in series [1] (setting [15]), 13 ± 3 μg/cm^2/h; in series [1] (setting [13]) it was 30 ± 30 μg/cm^2/h; in series [1] (setting [14]), 98 ± 20 μg/cm^2/h. The “steady state flux relative to flux value for glycerol” value in series [1] (setting [16]) was “at least 10 times”.

The values above are taken from patent publication US20070280972A1, “Adhesive solid gel-forming formulations for dermal drug delivery” (ZARS, Inc., priority 2006, published 2007).
